Measured values: article PMC8541353, “A Novel Phenylpyrrolidine Derivative: Synthesis and Effect on Cognitive Functions in Rats with Experimental Ishemic Stroke” (Molecules, 2021)

What was measured:
rats with MCAO [1] = assay: Open field test (OFT) after MCAO; format: in vivo, Wistar rats
Experimental: (§1) A MCAO animal model was used to characterize the effects of compound 1 on the development and resolution of stroke. At the baseline, we performed the MRI and hole-board test before MCAO surgery. Once animals recovered after the surgery, we stratified them based on their background psycho-emotional status and performed a control MRI to access whether the occlusion was sufficient or not. […] From 24 h to day 7, the neurological status was assessed daily according to the neurological scale (mNSS). By the end of day 7, animals underwent MRI. In addition, MRI was performed on days 14 and 28 (Shceme 3)The hole-board test was repeated on days 10 and 24. The degree of motor function impairment, the deficit of exploratory behavior, and the recovery process were assessed in the beam walking test (BWT), which was performed twice on days 12 and 14. An open field test was carried out on days 16 and 26.
(§2) In the first experimental series, the following test systems were used: HBT (OpenScience, Russia), OFT (OpenScience), and LDT (OpenScience). The design for the second experimental series was as follows. All rat behavioral changes were evaluated during the four weeks after stroke simulation. […] General neurological disorders were assessed using the modified neurological severity score (mNSS). Motor and cognitive impairment were evaluated using the following functional tests: BWT (OpenScience), HBT (OpenScience), and OFT (OpenScience). […] In this test, motor dysfunction in all four limbs was evaluated; specifically, the number of steps, errors, and slides were counted. The overall score was calculated using the following formula: score = errors + 0.5 × slides × 100/total number of steps [47]. […]
(§3) The HBT was performed on postoperative days 10 and 24. In this test, the following parameters were assessed: orientational and motor activity (horizontal activity, arbitrary units: number of crossings; vertical activity, arbitrary units: number of head dips), anxiety level (immobility and grooming time and number of grooming and immobility events), and the number of central sector crossings. […]

[2] = Reported BBB permeability; conditions: compound 1, no reference given; own data
Source text: Table 5 Predicted permeability of ampakines in silico and in the blood–brain barrier (BBB). | column: Literature Report of BBB Permeability

rats with MCAO [3] = assay: Hole-board test (HBT) after MCAO; format: in vivo, Wistar rats
Experimental: as §1, §2, §3

[4] = system: patients with cerebral ischemia-induced short-term memory/cognitive deterioration; conditions: after piracetam; cited from earlier work

O=C(CN1CC(c2ccccc2)CC1=O)NCCS(=O)(=O)[O-].[K+] (centres unmarked) [Compound 1, potassium 2-[2-(2-oxo-4-phenylpyrrolidin-1-yl)acetamido]ethane-1-sulfonate]
Locomotor activity (OFT) (rats with MCAO [1]): higher | Immobility time (OFT) compared to the saline and piracetam groups (rats with MCAO [1]; day 16): lower | Number of crossed areas (OFT) (rats with MCAO [1]; day 16): statistically significant increase | BBB Permeability (column Literature Report of BBB Permeability) [2]: Low | Orientational activity (HBT) (rats with MCAO [3]; day 10): escalation | Freezing time (HBT) (rats with MCAO [3]; days 10 and 24): decreased | Total locomotor activity (HBT) (rats with MCAO [3]; days 10 and 24): significantly increased

NC(=O)CN1CCCC1=O [Piracetam, reference compound]
Patients who improved their memory and cognitive functions [4]: around 25%
